Laboratory results as given in publication PMC4412285, “Broadening the repertoire of melanoma-associated T-cell epitopes” (Cancer Immunology, Immunotherapy : CII, 2015).

Legend:
Assay type in all cases: cell-based, human
[1] = test system: CD8 T cells; assay: MHC multimer-based enrichment of PBMCs from melanoma patients and detection with combinatorial-encoded MHC multimers
Procedure, shortened: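 PBMCs enriched with pooled PE-labelled peptide-MHC multimers (0.1 μg/specificity, 1 h, 4 °C) and anti-PE magnetic beads, then expanded 2–3 weeks with irradiated feeders, CD3/CD28 beads, IL-2 (100 IU/ml) and IL-15 (23.8 IU/ml). Specific CD8 T cells detected by flow cytometry with dual-colour combinatorial-encoded MHC multimers; responses confirmed in a second colour combination.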

[2] = test system: CD8 T cells; assay: MHC multimer-based enrichment of PBMCs from healthy donors and detection with combinatorial-encoded MHC multimers; parameters: key: T-cell specificities also detected in the healthy donor cohort; settings: 10 healthy donors, HLA restriction as in Table 1
Experimental: Peptide-MHC monomers were multimerized with phycoerythrin (PE)-streptavidin (Biolegend, Nordic Biosite, Copenhagen, Denmark) for MHC multimer-based T-cell enrichment. Briefly, the cells were thawed in 11 ml of RPMI, 10 % FCS (R10) (both from Gibco, Life Technologies, Naerum, Denmark), 25 U/ml DNase (Invitrogen, Life Technologies, Naerum, Denmark) and 2.27 mM MgCl2 (Apoteket, Herlev University Hospital, Herlev, Denmark). 1 ml of the cell suspension was irradiated at 25 Gy, washed twice and used as feeder cells. The remaining cells were resuspended in 100 μl R10, pooled PE-coupled MHC multimers were added (0.1 μg/specificity based on MHC complex alone) and the mixture was incubated at 4 °C for 1 h. After careful washing, 20 μl of α-PE beads (Dynabeads Magnetic Beads, Life Technologies, Naerum, Denmark) were added and the cells were left at 4 °C for 15 min, washed, resuspended in 500 μl R10 and applied to MS separation columns (Miltenyi Biotec, Bergisch Gladbach, Germany) according to the manufacturer’s instructions. The trapped cells were flushed out, counted and cultured at 37 °C and 5 % CO2, in a 96-well plate (Corning Costar, BD Biosciences, Albertslund, Denmark); each well contained 5,000 positive fraction cells; 50,000 irradiated feeder cells; 11,000 CD3/CD28 activation beads (Dynabeads® Human T-Activator CD3/CD28 for T-cell Expansion and Activation, Life Technologies, Naerum, Denmark); IL-2 (100 IU/ml, Proleukin, Novartis Healthcare, Copenhagen, Denmark) and IL-15 (23.8 IU/ml, Peprotech Nordic, Stockholm, Sweden). The medium was refreshed every 1–3 days.
After 2–3 weeks of culturing, we tested the cultures for T-cell populations recognizing the peptide-MHC complexes used for enrichment via staining with combinatorial-encoded MHC multimers, as described. In short, MHC monomers were multimerized with two different streptavidin conjugates for each peptide specificity, enabling the simultaneous testing of 36 different specificities in a single sample by combining nine colors into dual-color codes for MHC multimers, in order to measure specific T-cell populations with flow cytometry. The cells were additionally stained with LIVE/DEAD® Fixable Near-IR Dead Cell Stain Kit for 633 or 635 nm excitation (Invitrogen, Life Technologies, Naerum, Denmark), CD8-Alexa Flour 700 (BD Pharmingen, Albertslund, Denmark) or CD8-peridinin chlorophyll (PerCP) (Invitrogen, Life Technologies, Naerum, Denmark) and fluorescein isothiocyanate (FITC) coupled antibodies to CD3 or to a panel of CD4, CD14, CD16, CD19 (all from BD Pharmingen, Albertslund, Denmark) and CD40 (AbD Serotec, Puchheim, Germany). […] The data were acquired on an LSR II flow cytometer, and the gating strategy is provided in Supplementary Figure 2. […]

[3] = test system: melanoma cell lines FM3 (HLA-A3+gp100+) and FM28 (HLA-A3-gp100+); assay: 51Chromium-release cytotoxicity assay, melanoma cell lines; settings: 51Cr release, 4 h
Experimental: To measure the ^51Chromium-release, 5 × 10^5 target cells in 100 µl R10 were labeled with ^51Cr (100 µCi; Amersham, Arlington Heights, IL) and pulsed with peptide at 37 °C for 1 h when indicated. The washed target cells were incubated with effector cells at various effector/target ratios in 96-well plates at 37 °C for 4 h before 100 µl of medium was aspirated and the ^51Cr release counted in a gamma counter (Wallac Wizard 1470 Automatic Gamma Counter, Perkin Elmer). The maximum ^51Cr release was determined in separate wells by adding 100 µl of 10 % Triton X-100, and the spontaneous release was determined by adding 100 µl of R10 to target cells only. […] The target cells were melanoma cell lines FM3 (HLA-A3^+gp100^+) and FM28 (HLA-A3^−gp100^+).

[4] = test system: T2-A3 cells; assay: 51Chromium-release cytotoxicity assay, peptide-pulsed T2-A3 cells; settings: 51Cr release, no lysis of T2A3 cells pulsed with an irrelevant peptide (Supplementary Figure 5)

Sequence: LIYRRRLMK
- Sum of MHC multimer-specific T cells compared with mean frequency in the healthy donor cohort + 3*standard deviation ([1]; Fig. 2e, patient cohort versus healthy donor cohort): higher frequency in the patient cohort
- Frequency of MHC multimer-specific T cells ([1]; HLA-A3, of 270,000 CD8 cells, PE/BV421 MHC multimer combination, PBMCs after PE-MHC multimer-based enrichment (Fig. 2a)): 0.004%
- Frequency of MHC multimer-specific T cells ([1]; HLA-A3, of 510,000 CD8 cells, PE/APC MHC multimer combination, confirmation staining (Fig. 2b)): 0.004%
- Detection rate of T-cell responses, percent of tested patients ([1]; HLA-A3 positive melanoma patients): 21%
- Frequency of MHC multimer-specific T cells ([1]; HLA-A3 restricted, representative dot plot, PBMCs after enrichment (Supplementary Figure 3)): 0.044 % of CD8 cells
- Detection rate of T-cell responses ([1]; HLA-A3 restricted, responding / tested HLA-A3 melanoma patients, PBMCs after MHC multimer-based enrichment, 2-3 weeks culture): 3/14
- T-cell specificity detected in the healthy donor cohort [2]: a
- Cold target inhibition of FM3 killing by T2-A3 cells pulsed with the peptide ([3]; not affected by T2-A3 cells pulsed with an irrelevant peptide (Fig. 3e)): specifically inhibited
- T cell-mediated killing of melanoma cell lines FM3 and FM28 ([3]; HLA-A3-restricted specific T cells, 37 °C (Fig. 3d)): selective killing of the HLA-A3-positive melanoma cell line FM3
- Killing of T2-A3 cells pulsed with the peptide by T cells with matching specificity ([4]; listed as gp100_614-622): specifically killed
- Killing of T2-A3 cells pulsed with the peptide by T cells with matching specificity ([4]; listed as gp100614-22): Specific lysis
